# ChEMBL document CHEMBL1156345, “Suillusin, a unique benzofuran from the mushroom Suillus granulatus” (J Nat Prod, 2001)
# The source made the active and inactive calls. The calls are words filed in the database; no cut-off is given here.
# Key:
# UACC-62 = assay: Cytotoxicity against human UACC62 cells after 48 hrs by SRB assay; type: functional, cell-based; settings: UACC-62, 48 h
# SK-OV-3 = assay: Cytotoxicity against human SKOV3 cells at 30 ug/mL after 48 hrs by SRB assay; type: functional, cell-based
# HCT-15 = assay: Cytotoxicity against human HCT15 cells at 30 ug/mL after 48 hrs by SRB assay; type: functional, cell-based
# A549 = assay: Cytotoxicity against human A549 cells at 30 ug/mL after 48 hrs by SRB assay; type: functional, cell-based
# PC-3 = assay: Cytotoxicity against human PC3 cells at 30 ug/mL after 48 hrs by SRB assay; type: functional, cell-based
# SW-620 = assay: Cytotoxicity against human SW620 cells after 48 hrs by SRB assay; type: functional, cell-based; settings: SW-620, 48 h
# [1] = tested on: Radical scavenging activity; assay: Antioxidant activity assessed as DPPH radical scavenging activity at 100 ug/mL; type: functional
Compound,IC50 (UACC-62) [µg/mL],Activity (SK-OV-3),Activity (HCT-15),Activity (A549),Activity (PC-3),IC50 (SW-620) [µg/mL],Activity [1] [%]
COC(=O)[C@@]12Oc3ccc(O)cc3[C@@H]1C(=O)C(O)=C2c1ccc(O)c(O)c1 [SUILLUSIN],12,Active,Active,Active,Active,20,30
VITAMIN E,–,–,–,–,–,–,73
